Data from patent publication US9579406B2, “Phospholipid ether analogs as agents for detecting and locating cancer, and methods thereof” (Cellectar, Inc., priority 2004, dated 2017).
Like-named read-outs stand apart in the source and are kept apart here.

Assays:
SCC1 and 6 = assay: Tumor models examined with NM404 (Table 2); type: in vivo, Nude mouse xenograft; details: Squamous cell carcinoma
Description: (§1) NM404 has now been evaluated in 27 animal tumor models, including several lung, and it is clear that once the agent enters tumor cells, it reaches a metabolic dead end and becomes trapped. […] NM404 is also retained in spontaneous murine lung tumors (FIG. 13). Using ^125I-labeled NM404, the inventors have been able to image mammary and prostate tumors in mice in excess of 60 days. […] Imaging and tissue distribution studies performed in mouse models aimed at determining the uptake characteristics in a wide variety of tumor models are summarized in Table 2.
(§2) Although tumor retention can be explained by a lack of metabolic phospholipase enzymes in the tumor cell membranes, the exact mechanism of tumor cell uptake is unknown. […] The inventors are currently evaluating the selectivity of NM404 in a unique mouse tumor model developed at Wisconsin, wherein both preneoplastic hyperplasias and malignant adenocarcinomas form spontaneously in the mammary gland. […] If this initial observation is validated, then via genomic and or proteomic analysis the inventors may be able to identify a key genetic difference between malignant tumors and their non malignant predecessor cells. This could identify a completely new molecular therapeutic target that may be universal for all types of cancer.

MAT LyLu cells = assay: Gamma camera scintigraphy in rat Dunning R3327 (MAT LyLu) prostate cancer model
Description: The MatLyLu (Dunning R3327 rat) model, a rat prostate tumor line, was used specifically to screen 9 specific analogs prior to entering them into control for dosimetry and tumor-bearing animals for determining tumor/background ratios.
In order to expedite the screening process and minimize the number of tumor bearing animals utilized in multiple time point tissue distribution studies, new radioiodinated homologs were imaged by gamma camera scintigraphy in the rat Dunning R3337 (MAT LyLu strain) prostate cancer model. […] Gamma camera images were obtained at multiple time points including 24 and 48 hours post injection.
The new PLE analogs were synthesized and radiolabeled with ^125I for initial image analysis in Copenhagen rats bearing Dunning R3327 prostate tumors.

Melanoma B16 = assay: Tumor models examined with NM404 (Table 2); type: in vivo, Mouse xenograft; details: Adenocarcinoma
Description: as §1, §2

LuCaP prostate = assay: Tumor models examined with NM404 (Table 2); type: in vivo, Mouse xenograft; details: Adenocarcinoma
Description: as §1, §2

Liver CT-26 = assay: Tumor models examined with NM404 (Table 2); type: in vivo, Mouse xenograft; details: Colorectal adenocarcinoma
Description: as §1, §2

[1] = test system: A549 lung, PC-3 prostate, c-myc pancreatic tumors; assay: microPET imaging in lung, prostate and pancreatic mouse tumor models; type: in vivo
Description: Human pharmacokinetic studies have confirmed this finding as only 4% of the agent is cleared renally within 4 days of iv injection (majority is excreted via GI route).

Cervical = assay: Tumor models examined with NM404 (Table 2); type: in vivo, Transgenic mouse; details: Adenocarcinoma
Description: as §1, §2

TGFα Hepatoma = assay: Tumor models examined with NM404 (Table 2); type: in vivo, Transgenic mouse
Description: as §1, §2

Retinoblastoma = assay: Tumor models examined with NM404 (Table 2); type: in vivo, Transgenic mouse; details: Blastoma
Description: as §1, §2

TRAMP prostate = assay: Tumor models examined with NM404 (Table 2); type: in vivo, Transgenic mouse; details: Adenocarcinoma
Description: as §1, §2

Pancreas c-myc/k-ras = assay: Tumor models examined with NM404 (Table 2); type: in vivo, Transgenic mouse; details: Ductal/acinar
Description: as §1, §2

Min Mouse Intestinal = assay: Tumor models examined with NM404 (Table 2); type: in vivo, Transgenic mouse; details: Adenocarcinoma
Description: as §1, §2

[2] = test system: benign intestinal adenomas, preneoplastic hyperplasias; assay: Selectivity for benign and preneoplastic lesions; type: in vivo, mouse
Description: as §2

Lung A-549 (NSCC) = assay: Tumor models examined with NM404 (Table 2); type: in vivo, SCID Mouse; details: Adenocarcinoma
Description: as §1, §2

Adrenal RL-251 = assay: Tumor models examined with NM404 (Table 2); type: in vivo, SCID Mouse; details: Adenocarcinoma
Description: as §1, §2

Adrenal H-295 = assay: Tumor models examined with NM404 (Table 2); type: in vivo, SCID Mouse; details: Adenocarcinoma
Description: as §1, §2

Prostate PC-3 = assay: Tumor models examined with NM404 (Table 2); type: in vivo, SCID Mouse; details: Adenocarcinoma
Description: as §1, §2

[3] = Acute GLP toxicology, single iv dose, 14 days observation, rats; type: in vivo; details: female rats
[4] = test system: Walker-256 carcinosarcoma; assay: Tissue distribution of radioactivity in rats bearing Walker-256 carcinosarcoma; type: in vivo, rat
Mammary Adenocarcinoma = assay: Tumor models examined with NM404 (Table 2); type: in vivo, Apc/^min+ mouse
Description: as §1, §2

Mammary SCC = assay: Tumor models examined with NM404 (Table 2); type: in vivo, Apc/^min+ mouse; details: Squamous cell carcinoma
Description: as §1, §2

[5] = Acute GLP toxicology, single dose, 14 days observation, rabbits; type: in vivo
Procedure: Formal toxicology studies of NM404 in male rats and rabbits were performed at the Toxicology Research Center of the State University of New York at Buffalo under the direction of Dr. Paul Kostyniak. Drug vehicle and drug product were provided to Dr. Kostyniak by Dr. Raymond Counsell of the University of Michigan for testing as described in the appended synopses of Study 27 and Study 28. […] Human safety studies of unlabeled NM404 were initiated in normal male humans at a mass of 10 times the anticipated imaging dose and about 21 times the anticipated therapy dose. […] This toxicology study was performed under GLP conditions.
Subsequently, the researchers at the University of Wisconsin initiated a toxicology study of unlabeled NM404 in female rats and rabbits (Study 31 and Study 32) at the Toxicology Research Center at SUNY-Buffalo in order to expand the patient population to be studied in the NSCLC Phase 1 clinical trial. […] Human safety studies of unlabeled NM404 were initiated in normal female humans at a mass of 10 times the initially anticipated imaging dose and about 21 times the anticipated therapy dose. […] This toxicology study was performed under GLP conditions.

[6] = Blood plasma kinetics in rats; type: in vivo; details: rat
[7] = test system: human PC-3 prostate tumor xenografts; assay: Scintigraphy and tissue distribution in SCID mice bearing human PC-3 prostate tumor xenografts; type: in vivo; details: day 5
Description: Tumor uptake, however, continued to increase up until day 5 when it reached 18% injected dose per gram of tumor. […] Tumor to background tissue ratios exceeded 4, 6.8, 23, and 9 in blood, liver, muscle, and prostate, respectively, 3 days after injection and continued to improve at 5 and 8 days. Again, although thyroid levels ranged from 26 to 54% injected dose per gram of tissue, these levels are actually quite low and represent an extremely small percentage of the injected dose when the exceedingly small mass of the organ is considered and the data are presented on a percent administered dose per organ basis.

Structure (SMILES): C[N+](C)(C)CCOP(=O)([O-])OCCCCCCCCCCCCCCCCCCc1ccc(I)cc1 [NM-404, 18-(4-iodophenyl)-octadecylphosphocholine]
- NM404 Tumor Localization (SCC1 and 6): Yes (Localization defined as >5% injected dose per gram tumor basis based on tissue distribution data)
- liver activity and tumor retention in initial image screen (MAT LyLu cells; 125I-labeled): much lower liver activity than its predecessor NM324 but also maintained prolonged tumor retention
- tumor uptake and liver/abdominal radioactivity by gamma camera imaging (MAT LyLu cells; tumor-bearing rats, 24 and 48 hours post injection): readily visualized
- NM404 Tumor Localization (Melanoma B16): Yes (Localization defined as >5% injected dose per gram tumor basis based on tissue distribution data)
- NM404 Tumor Localization (LuCaP prostate): Yes (Localization defined as >5% injected dose per gram tumor basis based on tissue distribution data)
- NM404 Tumor Localization (Liver CT-26): Yes (Localization defined as >5% injected dose per gram tumor basis based on tissue distribution data)
- time to tumor uptake ([1]; after injection): ≤ 6 h
- tumor avidity ([1]; mouse, in vivo): significant tumor avidity regardless of location in the body
- NM404 Tumor Localization (Cervical): Yes (Localization defined as >5% injected dose per gram tumor basis based on tissue distribution data)
- NM404 Tumor Localization (TGFα Hepatoma): Yes (Localization defined as >5% injected dose per gram tumor basis based on tissue distribution data)
- NM404 Tumor Localization (Retinoblastoma): Yes (Localization defined as >5% injected dose per gram tumor basis based on tissue distribution data)
- NM404 Tumor Localization (TRAMP prostate): Yes (Localization defined as >5% injected dose per gram tumor basis based on tissue distribution data)
- NM404 Tumor Localization (Pancreas c-myc/k-ras): Yes (Localization defined as >5% injected dose per gram tumor basis based on tissue distribution data)
- NM404 Tumor Localization (Min Mouse Intestinal): Yes (Localization defined as >5% injected dose per gram tumor basis based on tissue distribution data)
- uptake and retention in preneoplastic lesions ([2]; mammary gland model, preliminary): not taken up and retained in preneoplastic lesions
- localization in benign intestinal adenomas ([2]; mouse, in vivo): does not localize in benign intestinal adenomas (polyps)
- NM404 Tumor Localization (Lung A-549 (NSCC)): Yes (Localization defined as >5% injected dose per gram tumor basis based on tissue distribution data)
- NM404 Tumor Localization (Adrenal RL-251): Yes (Localization defined as >5% injected dose per gram tumor basis based on tissue distribution data)
- NM404 Tumor Localization (Adrenal H-295): Yes (Localization defined as >5% injected dose per gram tumor basis based on tissue distribution data)
- NM404 Tumor Localization (Prostate PC-3): Yes (Localization defined as >5% injected dose per gram tumor basis based on tissue distribution data)
- adverse effects [3]: no adverse effects attributable to the test article were noted
- toxic effects ([3]; 0.04 mg/kg (Study 31)): no significant toxic effects were noted
- radioactivity in the tumor (peak) ([4]; 48 hours after administration): 1.14±0.01 % of ID/g
- blood levels ([4]; 120 hours): 0.6±0.1 % of ID/g
- time of peak tumor radioactivity ([4]; after administration): 48 h
- NM404 Tumor Localization (Mammary Adenocarcinoma): Yes (Localization defined as >5% injected dose per gram tumor basis based on tissue distribution data)
- NM404 Tumor Localization (Mammary SCC): Yes (Localization defined as >5% injected dose per gram tumor basis based on tissue distribution data)
- toxic effects ([5]; female rabbits, 0.04 mg/kg (Study 32)): no significant toxic effects were noted
- adverse effects ([5]; male and female rabbits): no adverse effects attributable to the test article were noted
- toxic effects ([5]; male rabbits, 4 mg/kg (Study 28)): no significant toxic effects were noted
- acute toxicity ([5]; unlabeled, 1200 times the anticipated imaging mass dose): no acute toxicities were found
- half-life ([6]; read-out: distribution phase half life (converted)): 4.86 h
- half-life ([6]; read-out: elimination half life time in plasma (converted)): ~209 h
- tumor uptake [7]: 18 % injected dose per gram of tumor
